Laboratory results reported in patent EP3134349B1 (priority 2014, dated 2015).
Values after ≈ are worked out from the molar mass of the structure shown.

Assay: Water solubility by batch tests at room temperature (saturated solution, headspace GC)
Type: physicochemical
Description: In particular, in a vial fully filled with distilled water, a volume of pure compound (alone or mixed) in an amount sufficient for obtaining a well detectable precipitate and thus a saturated solution was injected. In order to quantify the solubilized fraction of the compound, the saturated solution was analyzed through gas chromatography of the headspace.

ClC(Cl)C(Cl)Cl [1,1,2,2-TeCA, 1,1,2,2-Tetrachloroethane]
Experimental solubility (pure compound in distilled water): 2.99 ± 0.18 gL^-1
solubility (thermodynamic from solid, mixture of the two compounds 50% V/V, distilled water, no unit printed in this row (other rows gL^-1), read-out: Mixture 50% V/V (experimental water solubility of the component)): 1470 ± 90 µg/mL (≈ 8.76 mM)
